Laboratory results from US20240316015A1, “COMPOSITION AND METHOD FOR TREATING TUMORS” (NATURAL MEDICINE INSTITUTE OF ZHEJIANG YANGSHENGTANG CO., …, priority 2021, published 2024).

What was measured:
MC38 = assay: scratch test of MC38; type: cell-based; details: concentrations such as 5 μM, 10 μM or 20 μM; FIGS. 3-7
Procedure: Different concentrations of PDE4 inhibitors, such as 5 μM, 10 μM, or 20 μM, were administered to verify the inhibitory effect on metastasis in the scratch test of MC38.

MC38 cells [1] = assay: tumor metastasis model, MC38 cells injected into the spleen of mice; type: in vivo, C57 mice; details: 4 mg/kg intraperitoneally every 3 days, 6 doses; FIGS. 1A and 1B
Procedure: In use, DMSO was used as the solvent for Oxaliplatin and Roflumilast. (1) Tumorigenesis in mice. 6-8 week-old C57 female mice were selected. MC38 cells were cultured in vitro to logarithmic phase, collected, and resuspended in a PBS buffer solution. The collected cells were injected into the spleen of mice through surgery with 5×10^5 MC38 cells per mouse to establish a tumor metastasis model. […] The day of the first injection was taken as Day 1. Then, the mice were detected for weight and recorded, and subject to Luciferin fluorescence imaging. That is, each mouse was intraperitoneally injected with 100 μL of 1 mg/mL aqueous solution of potassium D-Luciferin as formulated. 10 min after injection, the mice were subject to Luciferin fluorescence imaging using a Small Animal […] Imaging System (model: IVIS Lumina XRMS Series III).

MC38 cells [2] = assay: subcutaneous tumor model, colon cancer cells such as MC38; type: in vivo, C57 mice; details: e.g. 4 mg/kg + 2 mg/kg i.p. every 3 days, 6 doses
Procedure: (1) Tumorigenesis in mice. 6-8 week-old C57 female mice were selected. Colon cancer cells, such as MC38 cells, were cultured in vitro to logarithmic phase, collected, and resuspended in a PBS buffer solution. The collected cells were subcutaneously injected into the leg of mice with 5×10^5 cells per mice to establish a subcutaneous tumor model.
(2) After tumorigenesis, the mice were divided into four experimental groups including a blank control, a PDE4 inhibitor group, an immune checkpoint inhibitor group, and a PDE4 inhibitor+immune checkpoint inhibitor group. The mice in the PDE4 inhibitor+immune checkpoint inhibitor group were sequentially intraperitoneally injected with, e.g., 4 mg/kg of PDE4 inhibitor and, e.g., 2 mg/kg of immune checkpoint inhibitor (e.g., a PD-L1 antibody) every 3 days, with 6 doses in total, while the PDE4 inhibitor group and the immune checkpoint inhibitor group were separately injected with the same dose of PDE4 inhibitor and the immune checkpoint inhibitor in the same manner, and the blank control was injected with the same dose of normal saline. The day of the first injection was taken as day 1. The mice were detected for the weight and tumor size and recorded: the tumor volume (mm^3)=length (L)×width (W)^2/2, and then subject to Luciferin fluorescence imaging of tumor. That is, each mouse was intraperitoneally injected with 100 μL of 1 mg/mL aqueous solution of D-Luciferin potassium as formulated. 10 min after injection, the mice were subject to Luciferin fluorescence imaging using a Small Animal Liver Imaging System (model: IVIS Lumina XRMS Series III).
(1) Tumorigenesis in mice. 6-8 week-old C57 female mice were selected. […]

Breast cancer cells = assay: subcutaneous tumor model, breast cancer cells; type: in vivo, C57 mice; details: e.g. 4 mg/kg + 2 mg/kg i.p. every 3 days, 6 doses
Procedure: (§1) (1) Tumorigenesis in mice. 6-8 week-old C57 female mice were selected. Breast cancer cells were cultured in vitro to logarithmic phase, collected, and resuspended in a PBS buffer solution. The collected cells were subcutaneously injected into the leg of mice with 5×10^5 cells per mouse to establish a subcutaneous tumor model. (2) After tumorigenesis, the mice were divided into four experimental groups including a blank control, a PDE4 inhibitor group, an immune checkpoint inhibitor group, and a PDE4 inhibitor+immune checkpoint inhibitor group. […] The mice were detected for weight and tumor size and recorded: tumor volume (mm^3)=length (L)×width (W)^2/2, and then subject to Luciferin fluorescence imaging of tumor. […] 10 min after injection, the mice were subject to Luciferin fluorescence imaging using a Small Animal Live Imaging System (model: IVIS Lumina XRMS Series III). […] The mice were detected for weight and tumor size and recorded: tumor volume (mm^3)=length (L)×width (W)^2/2, and then subject to Luciferin fluorescence imaging of tumor. […] 10 min after injection, the mice were subject to Luciferin fluorescence imaging using a Small Animal Live Imaging System (model: IVIS Lumina XRMS Series III).

Melanoma cells = assay: subcutaneous tumor model, melanoma cells; type: in vivo, C57 mice; details: e.g. 4 mg/kg + 2 mg/kg i.p. every 3 days, 6 doses
Procedure: as §1, with “Melanoma” for “Breast cancer”

Lymphoma cells = assay: subcutaneous tumor model, lymphoma cells; type: in vivo, C57 mice; details: in combination with anti-PD-L1 antibody; e.g. 4 mg/kg + 2 mg/kg i.p. every 3 days, 6 doses
Procedure: (§2) (1) Tumorigenesis in mice. 6-8 week-old C57 female mice were selected. Lymphoma cells were cultured in vitro to logarithmic phase, collected, and resuspended in a PBS buffer solution. The collected cells were subcutaneously injected into the leg of mice with 5×10^5 cells per mouse to establish a subcutaneous tumor model. (2) After tumorigenesis, the mice were divided into four experimental groups including a blank control, a PDE4 inhibitor group, an immune checkpoint inhibitor group, and a PDE4 inhibitor+immune checkpoint inhibitor group. The mice in the PDE4 inhibitor+immune checkpoint inhibitor group were sequentially intraperitoneally injected with e.g. 4 mg/kg of PDE4 inhibitor and e.g. 2 mg/kg of immune checkpoint inhibitor (e.g., an PD-L1 antibody) every 3 days, with 6 doses in total, while the PDE4 inhibitor group and the immune checkpoint inhibitor group were separately injected with the same dose of PDE4 inhibitor and immune checkpoint inhibitor in the same manner, and the blank control was injected with the same dose of normal saline. […] The mice were detected for weight and tumor size and recorded: tumor volume (mm^3)=length (L)×width (W)^2/2, and then subject to Luciferin fluorescence imaging of tumor. […] 10 min after injection, the mice were subject to Luciferin fluorescence imaging using a Small Animal Live Imaging System (model: IVIS Lumina XRMS Series III).

Hematologic tumor cells = assay: subcutaneous tumor model, hematologic tumor cells; type: in vivo, C57 mice; details: in combination with anti-PD-L1 antibody; e.g. 4 mg/kg + 2 mg/kg i.p. every 3 days, 6 doses
Procedure: as §2, with “Hematologic tumor” for “Lymphoma”

breast tumor cells 4T1 = assay: mouse model of lung metastasis of breast cancer; type: in vivo; details: 4T1 lung metastasis model; FIG. 8
[3] = in combination with anti-PD-1 antibody
[4] = in combination with anti-PD-L1 antibody

## O=C(O)Cc1ccc(Cc2cc(-c3cccc(Cl)c3)nc(C(F)(F)F)c2)cc1 [BPN14770, Benzeneacetic acid, 4-[[2-(3-chlorophenyl)-6-(trifluoromethyl)-4-pyridinyl]methyl]-]
MC38
  inhibitory effect on metastasis in the scratch test: inhibiting metastasis

## OCCN(CCO)c1nc(N2CCCCC2)c2nc(N(CCO)CCO)nc(N3CCCCC3)c2n1 [Dipyridamole]
MC38
  inhibitory effect on metastasis in the scratch test: inhibiting metastasis

## COc1cccc(Nc2c(C(N)=O)cnc3c(C)cc(S(=O)(=O)c4cccc(C(=O)N(C)C)c4)cc23)c1 [GSK256066]
MC38
  inhibitory effect on metastasis in the scratch test: inhibiting the results of metastasis

## O=C(Nc1c(Cl)cncc1Cl)c1ccc(OC(F)F)c(OCC2CC2)c1 [Roflumilast]
MC38 cells [1]
  inhibition of tumor metastasis (Luciferin fluorescence imaging): Capable of Inhibiting Tumor Metastasis
MC38 cells [2]; in combination with anti-CTLA-4 antibody
  inhibition of tumor growth: Synergistically Inhibiting Growth of Colon Cancer
MC38 cells [2]; in combination with anti-LAG-3 antibody
  inhibition of tumor growth: Synergistically Inhibiting Growth of Colon Cancer
MC38 cells [2]; [3]
  inhibition of tumor growth: Synergistically Inhibiting Growth of Colon Cancer
Breast cancer cells; [3]
  inhibition of tumor growth: Synergistically Inhibiting Growth of Breast Cancer
Breast cancer cells; [4]
  inhibition of tumor growth: Synergistically Inhibiting Growth of Breast Cancer
Melanoma cells; [3]
  inhibition of tumor growth: Synergistically Inhibiting Growth of Melanoma
Melanoma cells; [4]
  inhibition of tumor growth: Synergistically Inhibiting Growth Of Melanoma
Lymphoma cells
  inhibition of tumor growth: Synergistically Inhibiting Growth of Lymphoma
Hematologic tumor cells
  inhibition of tumor growth: Synergistically Inhibiting Growth of Hematologic Tumor
MC38
  inhibitory effect on metastasis in the scratch test: inhibiting metastasis
Breast tumor cells 4T1
  inhibitory effect on tumor metastasis: significant inhibitory effect on tumor metastasis

## COc1ccc(C2CNC(=O)C2)cc1OC1CCCC1 (stereo not shown) [Rolipram, 4-(3-cyclopentyloxy-4-methoxyphenyl)pyrrolidin-2-one]
MC38
  inhibitory effect on metastasis in the scratch test: inhibiting metastasis
